Results on one compound are retold here after EP2653477B1, “SCORPION ACTIVE PEPTIDES AND PREPARATION METHODS AND APPLICATIONS THEREOF” (Wuhan More Biotechnology Co., Ltd., priority 2010, dated 2012).

Structures are written as SMILES. Bridge positions count the residues as written; N and C are the ends. Peptide text beside a SMILES is read from it.

One data set deals with Wistar rat EAE model. As to the kind of experiment: EAE (multiple sclerosis) model in Wistar rats induced by GPSCH-CFA, clinical scoring. In kind it is in vivo. To be noted: 100 µg·kg^-1 subcutaneously once every day, x±s, n=10, score 0-5. The text has this: Experimental animals: female inbred line Wistar rats (6∼8 week old, body weigh 150±10 g) and guinea pigs (300∼400 g, purchased from Wuhan University Laboratory Animal Center) were selected.
Formulating a mixed emulsion of whole spinal cord homogenate - Freund's complete adjuvant (GPSCH-CFA): a guinea pig was executed, and the spinal cord was rapidly removed, and prepared into 50% PBS homogenate by a ultrasonic disruptor (Sonics & Materials Inc, America), which was mixed with equal amount of Freund's complete adjuvant (BCG vaccine 10 mg/ml), and was pushed back and forth with syringes until forming a water-in-oil emulsion.
Wistar rat EAE model induced by EAE: GPSCH-CFA emulsion was injected intradermally into the foot pads of both the hind legs of Wistar rats, or simultaneously injected intradermally about 1×10^10 pertussis vaccine. The rats were weighed every day, and observed for their neurological symptoms. Experimental autoimmune encephalomyelitis appeared after the rats had been raised for 2 weeks.
The rats with experimental autoimmune encephalomyelitis (EAE) were divided into […] groups randomly: normal control group (negative control group), model control group (model rats + normal saline), administration group A (model rats + ADMR-011 polypeptide), administration group B (model rats + ADMR-016 polypeptide), administration group C (model rats + ADMR-019 polypeptide), administration group D (model rats + ADMR-023 polypeptide), and administration group E (model rats + ADMR-028 polypeptide), 10 rats for each group. For the administration groups, polypeptides ADMR-011, ADMR-016, ADMR-019, ADMR-023 and ADMR-028 were injected subcutaneously respectively at a dose of 100 µg·kg^-1, once every day in the morning. For the normal control group and the model control group, equivalent amount of normal saline was injected subcutaneously, and administered continuously. […] The highest clinical score for each animal was recorded, and the average value of them was taken to be the average clinical score.
The scoring criteria were: without any clinical symptom, 0 point; disappearance of tension in the tail, and observable mild awkward gait, 1 point; weakness in both the hind limbs, which can recover after passive body flipping, 2 points; paralysis in both the hind limbs, which can not recover after passive body flipping, 3 points; tetraplegia accompanied by incontinence of urine and feces, 4 points; moribund state or death, 5 points. Table 1. Scores for rats of various experimental groups in the EAE model (-x±s)

The subject of another data set is Kunming mice. The data set can be described thus: toxicity study in mice, single intraperitoneal injection, 7 days observation. In kind it is in vivo. To be noted: 10 mg/kg intraperitoneally once (100 times the dose for animal model), observed 7 days. The method, then: 18∼20 g Kunming mice were selected, and divided into 4 groups, 8 male mice and 8 female mice for each group. The lyophilized powders of scorpion active polypeptides ADMR-011, ADMR-016, ADMR-019, ADMR-023 and ADMR-028 were dissolved with normal saline respectively, and the 3 groups of mice were injected intraperitoneally once respectively with polypeptide solution at a dose of 10 mg/kg (100 times of the dose for animal model), and the fourth group were injected with equivalent amount of normal saline as control.
After the administration, the respiration, motor and heartbeat in animals of all the groups were all normal, without significant abnormal reaction. 7 days after the administration, all the animals were conducted gross anatomy to observe the volume, color and texture of the main organs (heart, liver, spleen, lung, and kidney), and there was no macroscopic lesion. There were no significant difference between the 3 administration groups and the normal saline group.

The target in another data set is T1, potassium channel Kv1.3 (Homo sapiens, UniProt P22001).
T1 construct: expressed in transfected cells; host or cells: COS-7 cells, selected with 0.8 mg/mL geneticin
T1 sequence (P22001 whole entry): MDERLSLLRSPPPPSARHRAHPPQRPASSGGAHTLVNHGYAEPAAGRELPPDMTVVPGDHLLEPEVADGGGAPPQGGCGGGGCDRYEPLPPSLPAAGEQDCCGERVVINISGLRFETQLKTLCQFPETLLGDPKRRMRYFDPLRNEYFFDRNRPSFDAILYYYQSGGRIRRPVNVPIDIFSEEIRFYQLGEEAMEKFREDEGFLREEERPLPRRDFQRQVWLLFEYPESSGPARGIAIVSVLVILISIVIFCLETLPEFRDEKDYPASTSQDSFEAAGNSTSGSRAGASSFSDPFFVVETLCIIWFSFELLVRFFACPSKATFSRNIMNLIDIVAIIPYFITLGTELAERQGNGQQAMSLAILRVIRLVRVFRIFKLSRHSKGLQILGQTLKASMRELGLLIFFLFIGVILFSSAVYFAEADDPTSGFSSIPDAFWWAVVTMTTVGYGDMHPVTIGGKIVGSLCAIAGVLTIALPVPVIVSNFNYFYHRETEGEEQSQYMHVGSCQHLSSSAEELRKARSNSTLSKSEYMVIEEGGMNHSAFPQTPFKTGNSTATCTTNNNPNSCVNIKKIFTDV
As to the kind of experiment: whole-cell patch clamp, inhibition of Kv1.3 current in transfected COS-7 cells. To be noted: potassium channel Kv1.3 in COS-7 cells, read-out: polypeptide concentrations that inhibit the current by half (IC50 value). Format: cell-based. The method, then:
COS-7 cells were cultured in a DMEM medium containing 10% fetal calf serum, at 37° C, 5% CO2. The recombinant plasmids of potassium channel Kv1.3 were transfected by using a Sofast™ transfection kit, and the transfected cells were selectively cultured in a medium containing 0.8 mg/mL geneticin. The pharmacological activities of scorpion active polypeptides ADMR-011, ADMR-016, ADMR-019, ADMR-023 and ADMR-028 were tested and analyzed by using an instrument of whole-cell patch clamp (EPC-10 dual-channel patch clamp amplifier HEKA, Elektronik, Lambrecht, Germany). The setting of the experimental parameters, the collecting of data, and the applying of stimulus were all controlled by Pulse software (Elektronik, Lambrecht, Germany). The filter of the instrument was set to be 10 kHz (Bessel), and the electrode impedance was 2∼5 MΩ. After the formation of giga-seal (1∼5 GΩ) between the electrode and cell membrane, an automatic c-fast was performed, and the membrane was broken by slightly applying negative pressure, then an automatic c-slow was performed. At a holding potential of -70 mV, depolarizing pulses, incrementing in 10 mV steps, with a step width of 80 ms , were given to stimulate from -60 mV to +50 mV, and the condition of current was observed. The polypeptides ADMR-011, ADMR-016 and ADMR-019 were accurately perfused, which was achieved by MPS-2 (INBIO Inc, Wuhan, China) perfusing system. After dissolving the three scorpion active polypeptides, they were applied by spraying via DAD Drug Application System (ALA), and the tip of the tube for drug application was about 100 µm away from the cell being recorded.
It can be known from Figure 16 to Figure 20 that, the pharmacological activity of ADMR-011 on potassium channel Kvl.3 was 91 pM, the pharmacological activity of ADMR-016 on potassium channel Kvl.3 was 2.58 nM, the pharmacological activity of ADMR-019 on potassium channel Kv1.3 was 1.41 nM, and the pharmacological activity of ADMR-023 and ADMR-028 on potassium channel Kvl.3 were 0.49 nM and 0.65 nM, respectively. Therefore, they are polypeptides with potent activity that are currently found internationally.

For a further data set, the system named is rheumatoid arthritis. The data set can be described thus: pristane-induced rheumatoid arthritis in SD rats, joint score and hind foot plantar swelling. In kind it is in vivo. Also noted: key to Score of joint: clinical score 1-4: 1 joint red/swollen=1 ... severe whole-limb arthritis=4. To be noted: x±s, n=10; for Score of joint: arthritis rats, polypeptides 100 µg·kg^-1 (methotrexate 1.75 µg·kg^-1) subcutaneously once every day, score 1-4; for The swelling degree after the inflammation: volume difference of hind foot before and after the modeling. The method, then: […] Female (♀) specific pathogen free (SPF) inbred line SD rats (Wuhan University Laboratory Animal Center), body weight 150±10 g, were selected, and pristane was injected intradermally at the base of the tail of rats in experimental groups at a dose of 0.2 ml/rat, after they were acclimatized in a clean-grade environment for 1 week. Rheumatoid arthritis appeared after the rats were raised for only 2 weeks.
The rats having arthritis were randomized into: normal control group (negative control group), model negative control group (model rat + normal saline), model positive control group (model rat + methotrexate), administration group A (model rat + ADMR-011 polypeptide), administration group B (model rat + ADMR-016 polypeptide), administration group C (model rat + ADMR-019 polypeptide), administration group D (model rat + ADMR-023 polypeptide), and administration group E (model rat + ADMR-028 polypeptide), 10 rats for each group. The administration groups were injected subcutaneously at a dose of 100 µg·kg^-1, once every day in the morning, and administered continuously; the normal control group and the model negative control group were injected subcutaneously with equivalent amount of normal saline; and the model positive control group were injected subcutaneously with methotrexate (MTX) at a dose of 1.75 µg·kg^-1, once every day, and administered continuously.
The highest clinical score for each animal was recorded, and the average value of them was taken to be the average clinical score. The scoring criteria were: one joint of a rat was red and swollen, 1 point; two joints of a rat were red and swollen, 2 points; all the joints of a rat were red and swollen, 3 points; severe arthritis in the entire limb of a rat, 4 points. Table 2. Arthritis scores for rats of various experimental groups (-x±s)
From day 8 of the experiment, the hind foot plantar volume of the rat was measured and recorded every other day for 21 consecutive days, and the swelling degree (mL) was calculated according to the volume difference before and after the modeling. Table 3. The swelling degree of rats in various experimental groups (-x±s)

In the case of `CC[C@H](C)[C@H](NC(=O)CNC(=O)[C@@H](N)C(C)C)C(=O)N[C@@H](CC(N)=O)C(=O)N[C@H](C(=O)N[C@@H](CCC(N)=O)C(=O)N[C@H]1CSSC[C@@H]2NC(=O)[C@H](CCC(N)=O)NC(=O)CNC(=O)[C@H](Cc3ccccc3)NC(=O)[C@H](CCCNC(=N)N)NC(=O)[C@H](CCSC)NC(=O)CNC(=O)[C@H](C)NC(=O)[C@H](CC(=O)O)NC(=O)[C@H](CCCCN)NC(=O)[C@@H]3CSSC[C@@H](C(=O)N[C@H](C(=O)N4CCC[C@H]4C(=O)N[C@@H](CCCCN)C(=O)O)[C@@H](C)O)NC(=O)[C@H](CC(=O)O)NC(=O)[C@H](CSSC[C@H](NC(=O)[C@H](CCC(N)=O)NC(=O)[C@H](CCCNC(=N)N)NC(=O)[C@H](CO)NC(=O)[C@H](Cc4c[nH]cn4)NC(=O)[C@H](CC(N)=O)NC1=O)C(=O)N[C@@H](CC(C)C)C(=O)N[C@@H](CCCCN)C(=O)N1CCC[C@H]1C(=O)N3)NC(=O)[C@H]([C@@H](C)O)NC(=O)CNC(=O)[C@H](CC(N)=O)NC(=O)[C@H]([C@@H](C)CC)NC2=O)C(C)C` [ADMR-028] (H-VGINVQCNHSRQCLKPCKDAGMRFGQCINGTCDCTPK-OH; disulfide 7-27, 13-32, 17-34 (inferred); N-terminus and C-terminus assumed), the Average clinical scores in the data set on Wistar rat EAE model (8 d) stood at 0.49±0.12; in the data set on Wistar rat EAE model (10 d), 0.95±0.22; with Wistar rat EAE model (12 d), 1.09±0.37; in the data set with Wistar rat EAE model (14 d), 1.13±0.29. The toxicity in mice entry with Kunming mice is reported as “no significant toxicity”. In addition, the IC50 at potassium channel Kv1.3 was 0.65 nM. Besides, the values for the Score of joint in the data set with rheumatoid arthritis (10 d), in the data set on rheumatoid arthritis (15 d) and in the data set on rheumatoid arthritis (21 d) were 1.79±0.55, 2.11±0.45 and 1.79±0.63, respectively. Besides, the “The swelling degree after the inflammation” value in the data set on rheumatoid arthritis (d8) came out at 0.037 ± 0.013 mL; in the data set with rheumatoid arthritis (d15), 0.28 ± 0.05 mL; in the data set on rheumatoid arthritis (d22) it was 0.38 ± 0.13 mL; in the data set with rheumatoid arthritis (d28) it was 0.31 ± 0.14 mL.
